14 compounds from patent US20150094294A1, “COMPOUNDS AND METHODS FOR TREATING MALARIA” (Cellceutix Corporation, priority 2012, published 2015) can be followed below.

Common to all, as to assay type: cell-based
Data set [1] concerns P. falciparum 3D7 (chloroquine-sensitive). As to the kind of experiment: Anti-malarial activity, P. falciparum 3D7 culture, 72 hour, DNA content by flow cytometry. The settings on record: Plasmodium falciparum, 3D7, 72 h, synchronized ring-stage parasites. As to the method:
Numerous compounds were screened in cultures of the malaria parasite P. falciparum 3D7 (chloroquine-sensitive) and DD2 (chloroquine-resistant). The compounds were also screened for toxixcity against 3T3 cells, HepG2 cells, and in a hemolysis assay. In brief, P. falciparum parasites were cultured in RPMI 1640 (Invitrogen) supplemented with Albumax II (Invitrogen). For synchronization, schizont stage parasites were magnet purified using a SuperMACS™ II Cell Separation Unit (Miltenyi Biotech). For IC50 determinations, synchronized ring-stage parasites were plated at 0.5% parasitemia and 8% hematocrit in 96-well plates at a total volume of 50 μL. Serial dilutions of 2× concentration of the respective compound, ranging from 2.5 μM to 20 nM, were added to the wells to bring the total volume up to 100 μL and 4% hematocrit. Compounds were assayed for a 72 hour period, after which the cultures were fixed with a solution of 4% paraformaldehyde and 0.08% glutaraldhyde in PBS. The cells were then permeabilized with 0.25% Triton X-100, and SYTOX Green Nucleic Acid Stain (Invitrogen) in PBS was added to a final concentration of 5 μM. DNA content, as an indicator of parasitemia, was analyzed on an Accuri C6 Flow Cytometer with C-Sampler. IC50 curves were generated using GraphPad Prism (GraphPad Software).
In general terms: A flow cytometer gives signals particle by particle.

Data set [2] is described as follows: Cytotoxicity against 3T3 cells. The settings on record: mouse, 3T3 cells; read-out: Cytotoxicity 3T3 EC50.
A short description of data set [3]: Cytotoxicity against HepG2 cells. The settings on record: human, HepG2 cells; read-out: Cytotoxicity HepG2 EC50.
A short description of a further data set: in vitro.

≈ marks a conversion by molar mass, not a printed value.

In general, IC50 refers to the midpoint of a concentration-inhibition curve. A higher IC50 goes with weaker potency in that assay. The term EC50 denotes the midpoint of the concentration-response curve.

In data set [1], `NCCCOc1cccc(-n2cc(-c3ccc4ccc(-c5cn(-c6cccc(OCCCN)c6)nn5)cc4c3)nn2)c1` [Compound 152] gave an IC50 of 0.0883 µM. The EC50 in data set [2] came out at 406 µM; in data set [3], 502 µM; in the data set “in vitro” it was 0.8 µg/mL (≈ 1.43 µM).
In data set [1], `NCCC#Cc1cncc(-c2cccc(-c3cncc(C#CCCN)c3)c2)c1` [Compound 142] gave an IC50 of 0.795 µM. For the same compound, the EC50 in data set [2] is 229 µM; in data set [3] it was 594 µM; in the data set “in vitro”, 538 µg/mL (≈ 1470 µM).
For `N=C(N)NCCCCC(=O)Nc1cc(C(F)(F)F)cc(NC(=O)c2cc(C(=O)Nc3cc(C(F)(F)F)cc(NC(=O)CCCCNC(=N)N)c3SCCNC(=O)CN)ncn2)c1SCCNC(=O)CN` [Compound 160], half-maximal inhibition in data set [1] (IC50) required 0.925 µM. The figures for the EC50 (in data set [2]; in data set [3]; in “in vitro”) were 66 µM, 224 µM and 250 µg/mL (≈ 242 µM), respectively.
`c1cc(N2CCNCC2)ccc1-c1ccc(-c2ccc(N3CCNCC3)cc2)s1` [Compound 252]: half-maximal inhibition in data set [1] (IC50) required 0.004 µM. For the same compound, the figures for the EC50 (in data set [2]; in data set [3]; in the data set “in vitro”) were above 1000 µM, above 1000 µM and 12 µg/mL (≈ 29.7 µM), respectively.
`NCCSc1ccc(NC(=O)c2cc(C(=O)Nc3ccc(SCCN)cc3)ncn2)cc1` [Compound 192] registered an IC50 in data set [1] of 0.182 µM. The concentration giving a half-maximal response (EC50) in data set [2] was 953 µM; in data set [3] it was above 1000 µM; in “in vitro”, 32 µg/mL (≈ 68.3 µM).
In turn, `N=C(N)NCCSc1ccc(NC(=O)Nc2cccc(CCNC(=N)N)c2)cc1C(F)(F)F` [Compound 270] returned an IC50 in data set [1] of 0.108 µM. Also, the 50% effective concentration (EC50) in data set [2] worked out at 398 µM; in data set [3] it was 702 µM; in “in vitro”, 317 µg/mL (≈ 657 µM).
`NCc1ccc(C(F)(F)F)c(Oc2ccc(S(=O)(=O)c3ccc(Oc4cc(CN)ccc4C(F)(F)F)cc3)cc2)c1` [Compound 156] yielded an IC50 in data set [1] of 0.258 µM. Moreover, the EC50 was 25 µM in data set [2], 50 µM in data set [3] and 9 µg/mL (≈ 15.1 µM) in the data set “in vitro”.
Turning to `Cn1c(-c2ccc(N3CCN(C(=N)N)CC3)cc2)cnc1-c1ccc(N2CCN(C(=N)N)CC2)cc1` [Compound 261], in data set [1], the IC50 worked out at 0.078 µM. Moreover, the EC50 in data set [2] was above 1000 µM; in data set [3] it was 932 µM; in the data set “in vitro”, above 1000 µg/mL.
The like results for `O=C(Nc1ccc(O[C@@H]2CCNC2)cc1)c1ccnc(C(=O)Nc2ccc(O[C@@H]3CCNC3)cc2)c1` [Compound 195] were, in that order, 0.045 µM, above 1000 µM, above 1000 µM and above 1000 µg/mL.
`O=C(Nc1ccc(N2CCNCC2)cc1)c1cc(C(=O)Nc2ccc(N3CCNCC3)cc2)ncn1` [Compound 201] came in with an IC50 in data set [1] below 0.001 µM. Besides, the results for the EC50 (in data set [2]; in data set [3]; in “in vitro”) were 137 µM, 234 µM and 48 µg/mL (≈ 98.6 µM), respectively.
The like results for `O=C(Nc1ccc(O[C@@H]2CCNC2)c(Cl)c1)c1cc(C(=O)Nc2ccc(O[C@@H]3CCNC3)c(Cl)c2)ncn1` [Compound 205] were, in that order, 0.07 µM, 40 µM, 307 µM and 176 µg/mL (≈ 316 µM).
Compound `CC(=O)Nc1cc(C(F)(F)F)cc(NC(=O)c2cc(C(=O)Nc3cc(C(F)(F)F)cc(NC(C)=O)c3SCCN)ncn2)c1SCCN` [Compound 303] displayed an IC50 in data set [1] of 0.034 µM. Further, the figures for the EC50 (in data set [2]; in data set [3]; in the data set “in vitro”) were 887 µM, above 1000 µM and 62 µg/mL (≈ 86.3 µM), respectively.
The corresponding values for `O=C(Nc1ccc(O[C@@H]2CCNC2)cc1)c1cncc(C(=O)Nc2ccc(O[C@@H]3CCNC3)cc2)c1` [Compound 194] are 0.187 µM, above 1000 µM, above 1000 µM and above 1000 µg/mL.
For `NCCSc1ccc(NC(=O)c2cc(C(=O)Nc3ccc(SCCN)c(C(F)(F)F)c3)ncn2)cc1C(F)(F)F` [Compound 188], in data set [1], 0.137 µM corresponded to half-maximal inhibition (IC50). The EC50 in data set [2] worked out at 1 µM; in data set [3], 9 µM; in the data set “in vitro”, 4 µg/mL (≈ 6.62 µM).
